Assay results published in PubChem BioAssay (NCI).
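Values below derive from 48-hour exposures of cells grown in 96-well plates, with endpoints linearly interpolated between the two concentrations bracketing the appropriate inhibition level. TGI denotes the concentration required for complete inhibition of growth.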

Assays:
Experiment in all cases: DTP human tumour cell line panel, 48 h
K-562 leukemia = test system: K-562 leukemia
U251 CNS = test system: U251 CNS
MOLT-4 leukemia = test system: MOLT-4 leukemia
786-0 renal = test system: 786-0 renal
SK-MEL-28 melanoma = test system: SK-MEL-28 melanoma
SN12C renal = test system: SN12C renal
UACC-257 melanoma = test system: UACC-257 melanoma
LOX IMVI melanoma = test system: LOX IMVI melanoma
HCT-116 colon = test system: HCT-116 colon
RPMI-8226 leukemia = test system: RPMI-8226 leukemia
SK-MEL-2 melanoma = test system: SK-MEL-2 melanoma
OVCAR-5 ovarian = test system: OVCAR-5 ovarian
HCC-2998 colon = test system: HCC-2998 colon
ACHN renal = test system: ACHN renal
MDA-N = test system: MDA-N
UO-31 renal = test system: UO-31 renal
SK-OV-3 ovarian = test system: SK-OV-3 ovarian
CCRF-CEM leukemia = test system: CCRF-CEM leukemia
PC-3 prostate = test system: PC-3 prostate
HS 578T breast = test system: HS 578T breast
HT29 colon = test system: HT29 colon
A498 renal = test system: A498 renal
SF-268 CNS = test system: SF-268 CNS
SNB-75 CNS = test system: SNB-75 CNS
NCI/ADR-RES ovarian = test system: NCI/ADR-RES ovarian
COLO 205 colon = test system: COLO 205 colon
SR leukemia = test system: SR leukemia
NCI-H23 lung = test system: NCI-H23 lung
SF-539 CNS = test system: SF-539 CNS
HCT-15 colon = test system: HCT-15 colon
HL-60(TB) leukemia = test system: HL-60(TB) leukemia
RXF 393 renal = test system: RXF 393 renal
SNB-19 CNS = test system: SNB-19 CNS
TK-10 renal = test system: TK-10 renal
A549 NSCLC = test system: A549 NSCLC
MDA-MB-435 = test system: MDA-MB-435
SW-620 colon = test system: SW-620 colon
SK-MEL-5 melanoma = test system: SK-MEL-5 melanoma
NCI-H522 lung = test system: NCI-H522 lung
IGROV1 ovarian = test system: IGROV1 ovarian
KM12 colon = test system: KM12 colon
HOP-62 NSCLC = test system: HOP-62 NSCLC
UACC-62 melanoma = test system: UACC-62 melanoma
MDA-MB-231 breast = test system: MDA-MB-231 breast
HOP-92 NSCLC = test system: HOP-92 NSCLC
OVCAR-4 ovarian = test system: OVCAR-4 ovarian
EKVX NSCLC = test system: EKVX NSCLC
M14 melanoma = test system: M14 melanoma
DU-145 prostate = test system: DU-145 prostate
NCI-H226 lung = test system: NCI-H226 lung
OVCAR-3 ovarian = test system: OVCAR-3 ovarian
CAKI-1 renal = test system: CAKI-1 renal
OVCAR-8 ovarian = test system: OVCAR-8 ovarian
MALME-3M melanoma = test system: MALME-3M melanoma
NCI-H460 lung = test system: NCI-H460 lung
SF-295 CNS = test system: SF-295 CNS
MCF7 breast = test system: MCF7 breast
T-47D breast = test system: T-47D breast

## CCOC(=O)C(Cl)(NC(=O)NC(Cl)(C(=O)OCC)C(F)(F)F)C(F)(F)F (stereo not given)
K-562 leukemia
  TGI: > 100 µM
U251 CNS
  TGI: > 100 µM
MOLT-4 leukemia
  TGI: > 100 µM
786-0 renal
  TGI: > 100 µM
SK-MEL-28 melanoma
  TGI: > 100 µM
SN12C renal
  TGI: > 100 µM
UACC-257 melanoma
  TGI: > 100 µM
LOX IMVI melanoma
  TGI: > 100 µM
HCT-116 colon
  TGI: > 100 µM
RPMI-8226 leukemia
  TGI: > 100 µM
SK-MEL-2 melanoma
  TGI: > 100 µM
OVCAR-5 ovarian
  TGI: > 100 µM
HCC-2998 colon
  TGI: > 100 µM
ACHN renal
  TGI: > 100 µM
MDA-N
  TGI: > 100 µM
UO-31 renal
  TGI: > 100 µM
SK-OV-3 ovarian
  TGI: > 100 µM
CCRF-CEM leukemia
  TGI: > 100 µM
PC-3 prostate
  TGI: > 100 µM
HS 578T breast
  TGI: > 100 µM
HT29 colon
  TGI: > 100 µM
A498 renal
  TGI: > 100 µM
SF-268 CNS
  TGI: > 100 µM
SNB-75 CNS
  TGI: > 100 µM
NCI/ADR-RES ovarian
  TGI: > 100 µM
COLO 205 colon
  TGI: > 100 µM
SR leukemia
  TGI: > 100 µM
NCI-H23 lung
  TGI: > 100 µM
SF-539 CNS
  TGI: > 100 µM
HCT-15 colon
  TGI: > 100 µM
HL-60(TB) leukemia
  TGI: > 100 µM
RXF 393 renal
  TGI: > 100 µM
SNB-19 CNS
  TGI: > 100 µM

## O=c1[nH]n(Cc2ccccc2Cl)c2ccc([N+](=O)[O-])cc12
K-562 leukemia
  TGI: > 100 µM
TK-10 renal
  TGI: > 100 µM
A549 NSCLC
  TGI: > 100 µM
MDA-MB-435
  TGI: > 100 µM
SW-620 colon
  TGI: > 100 µM
SK-MEL-5 melanoma
  TGI: 52.8 µM
U251 CNS
  TGI: > 100 µM
MOLT-4 leukemia
  TGI: > 100 µM
NCI-H522 lung
  TGI: > 100 µM
786-0 renal
  TGI: > 100 µM
IGROV1 ovarian
  TGI: > 100 µM
SK-MEL-28 melanoma
  TGI: > 100 µM
SN12C renal
  TGI: > 100 µM
KM12 colon
  TGI: > 100 µM
HOP-62 NSCLC
  TGI: > 100 µM
UACC-62 melanoma
  TGI: > 100 µM
UACC-257 melanoma
  TGI: > 100 µM
MDA-MB-231 breast
  TGI: > 100 µM
HOP-92 NSCLC
  TGI: 52 µM
OVCAR-4 ovarian
  TGI: > 100 µM
LOX IMVI melanoma
  TGI: > 100 µM
HCT-116 colon
  TGI: > 100 µM
RPMI-8226 leukemia
  TGI: > 100 µM
EKVX NSCLC
  TGI: > 100 µM
SK-MEL-2 melanoma
  TGI: > 100 µM
OVCAR-5 ovarian
  TGI: > 100 µM
M14 melanoma
  TGI: > 100 µM
HCC-2998 colon
  TGI: > 100 µM
ACHN renal
  TGI: > 100 µM
MDA-N
  TGI: > 100 µM
UO-31 renal
  TGI: > 100 µM
CCRF-CEM leukemia
  TGI: > 100 µM
DU-145 prostate
  TGI: > 100 µM
HS 578T breast
  TGI: > 100 µM
HT29 colon
  TGI: > 100 µM
A498 renal
  TGI: 64.3 µM
NCI-H226 lung
  TGI: > 100 µM
SF-268 CNS
  TGI: > 100 µM
SNB-75 CNS
  TGI: > 100 µM
NCI/ADR-RES ovarian
  TGI: > 100 µM
COLO 205 colon
  TGI: > 100 µM
OVCAR-3 ovarian
  TGI: > 100 µM
CAKI-1 renal
  TGI: > 100 µM
SR leukemia
  TGI: > 100 µM
OVCAR-8 ovarian
  TGI: > 100 µM
NCI-H23 lung
  TGI: > 100 µM
SF-539 CNS
  TGI: > 100 µM
HCT-15 colon
  TGI: > 100 µM
MALME-3M melanoma
  TGI: > 100 µM
HL-60(TB) leukemia
  TGI: > 100 µM
NCI-H460 lung
  TGI: > 100 µM
RXF 393 renal
  TGI: 57.9 µM
SNB-19 CNS
  TGI: > 100 µM

## CC(=O)N1C(=O)CC2(N=C(C)CC2=O)c2ccccc21 (stereo not given)
TK-10 renal
  TGI: > 10 µM
A549 NSCLC
  TGI: > 10 µM
MDA-MB-435
  TGI: > 10 µM
SW-620 colon
  TGI: > 10 µM
SK-MEL-5 melanoma
  TGI: > 10 µM
U251 CNS
  TGI: > 10 µM
IGROV1 ovarian
  TGI: > 10 µM
SK-MEL-28 melanoma
  TGI: > 10 µM
SN12C renal
  TGI: > 10 µM
KM12 colon
  TGI: > 10 µM
MDA-MB-231 breast
  TGI: > 10 µM
HOP-92 NSCLC
  TGI: > 10 µM
OVCAR-4 ovarian
  TGI: > 10 µM
HCT-116 colon
  TGI: > 10 µM
EKVX NSCLC
  TGI: > 10 µM
OVCAR-5 ovarian
  TGI: > 10 µM
SF-295 CNS
  TGI: > 10 µM
M14 melanoma
  TGI: > 10 µM
ACHN renal
  TGI: > 10 µM
MDA-N
  TGI: > 10 µM
UO-31 renal
  TGI: > 10 µM
DU-145 prostate
  TGI: > 10 µM
PC-3 prostate
  TGI: > 10 µM
HT29 colon
  TGI: > 10 µM
A498 renal
  TGI: > 10 µM
NCI-H226 lung
  TGI: > 10 µM
SF-268 CNS
  TGI: > 10 µM
SNB-75 CNS
  TGI: > 10 µM
NCI/ADR-RES ovarian
  TGI: > 10 µM
COLO 205 colon
  TGI: > 10 µM
OVCAR-3 ovarian
  TGI: > 10 µM
CAKI-1 renal
  TGI: > 10 µM
OVCAR-8 ovarian
  TGI: > 10 µM
NCI-H23 lung
  TGI: > 10 µM
SF-539 CNS
  TGI: > 10 µM
HCT-15 colon
  TGI: > 10 µM
RXF 393 renal
  TGI: > 10 µM
SNB-19 CNS
  TGI: > 10 µM

## OC1(CCc2ccccc2)COC(C(F)(F)F)(C(F)(F)F)C1 (stereo not given)
K-562 leukemia
  TGI: > 100 µM
TK-10 renal
  TGI: > 100 µM
A549 NSCLC
  TGI: > 100 µM
MDA-MB-435
  TGI: > 100 µM
SW-620 colon
  TGI: > 100 µM
SK-MEL-5 melanoma
  TGI: > 100 µM
U251 CNS
  TGI: > 100 µM
MOLT-4 leukemia
  TGI: > 100 µM
NCI-H522 lung
  TGI: > 100 µM
786-0 renal
  TGI: > 100 µM
IGROV1 ovarian
  TGI: > 100 µM
SK-MEL-28 melanoma
  TGI: > 100 µM
SN12C renal
  TGI: > 100 µM
KM12 colon
  TGI: > 100 µM
HOP-62 NSCLC
  TGI: > 100 µM
UACC-62 melanoma
  TGI: > 100 µM
MDA-MB-231 breast
  TGI: > 100 µM
OVCAR-4 ovarian
  TGI: > 100 µM
LOX IMVI melanoma
  TGI: > 100 µM
HCT-116 colon
  TGI: > 100 µM
RPMI-8226 leukemia
  TGI: > 100 µM
EKVX NSCLC
  TGI: > 100 µM
SK-MEL-2 melanoma
  TGI: > 100 µM
OVCAR-5 ovarian
  TGI: > 100 µM
SF-295 CNS
  TGI: > 100 µM
M14 melanoma
  TGI: > 100 µM
HCC-2998 colon
  TGI: > 100 µM
ACHN renal
  TGI: > 100 µM
MDA-N
  TGI: > 100 µM
UO-31 renal
  TGI: > 100 µM
SK-OV-3 ovarian
  TGI: > 100 µM
CCRF-CEM leukemia
  TGI: > 100 µM
DU-145 prostate
  TGI: > 100 µM
PC-3 prostate
  TGI: > 100 µM
HS 578T breast
  TGI: > 100 µM
MCF7 breast
  TGI: > 100 µM
HT29 colon
  TGI: > 100 µM
A498 renal
  TGI: > 100 µM
NCI-H226 lung
  TGI: > 100 µM
SF-268 CNS
  TGI: > 100 µM
SNB-75 CNS
  TGI: > 100 µM
NCI/ADR-RES ovarian
  TGI: > 100 µM
COLO 205 colon
  TGI: > 100 µM
OVCAR-3 ovarian
  TGI: > 100 µM
CAKI-1 renal
  TGI: > 100 µM
SR leukemia
  TGI: > 100 µM
OVCAR-8 ovarian
  TGI: > 100 µM
NCI-H23 lung
  TGI: > 100 µM
SF-539 CNS
  TGI: > 100 µM
HCT-15 colon
  TGI: > 100 µM
MALME-3M melanoma
  TGI: > 100 µM
HL-60(TB) leukemia
  TGI: > 100 µM
T-47D breast
  TGI: > 100 µM
NCI-H460 lung
  TGI: > 100 µM
RXF 393 renal
  TGI: > 100 µM
SNB-19 CNS
  TGI: > 100 µM
